# From patent US20220409617A1, “Drug Formulations and Methods of Treatment for Metabolic Disorders” (The Regents of the University of California, priority 2019, published 2022)
# Legend:
# [1] = Indirect calorimetry and food intake in metabolic cages; format: in vivo, mouse
# Experimental: To examine the effects of sphingolipid-like compound 893 on whole body metabolism, indirect calorimetry was performed. Male C57BL/6J mice were maintained on the SD or HFD for 10-12 weeks, acclimated to metabolic cages that mimic the home environment, and then treated with vehicle or 120 mg/kg sphingolipid-like compound 893 by gavage at ZT8.5. […] As expected, RER values were lower during both light and dark cycles and diurnal fluctuations in substrate utilization were blunted in HFD-fed mice relative to SD controls (FIGS. 29 & 30). […] Consistent with the pharmacokinetic properties of sphingolipid-like compound 893 (see FIG. 12), RER returned to control values 24 h after sphingolipid-like compound 893 treatment (FIGS. 28 & 29). Animals were similarly responsive to a second treatment with sphingolipid-like compound 893 given 48 h after the first.
# Metabolic parameters were measured using the Phenomaster system (TSE Systems Inc., Chesterfield, Mo.). The climate chamber was set to 21° C. and 50% humidity with a 12:12 h light-dark cycle. Mice were singly housed inside the chamber and acclimated for 48 h prior to data collection. VO2, VCO2, and food intake was measured every 27 min. Respiratory exchange ratio (RER) was calculated using the formula RER=VCO2/VO2. Energy expenditure was calculated using the equation EE=1.44(3.941×VO2+1.106×VCO2). In the indirect calorimetry studies in FIGS. 12 to 14, C57BL/6J mice were maintained on the HFD or SD for 10-12 weeks prior to evaluation and were naïve to therapy. Mice were serially evaluated in cohorts of 4 vehicle- and 4 sphingolipid-like compound 893-treated mice using 8 metabolic cages. Treatment was by gavage at ZT8.5, sphingolipid-like compound 893 was administered at 120 mg/kg in water. To evaluate the effect of morning treatment, vehicle or 120 mg/kg sphingolipid-like compound 893 was administered at ZT2 to 18 week old C57BL/6J males on a standard diet. Liquid diet experiments were also performed on 18 week old C57BL/6J males; mice were treated with sphingolipid-like compound 893 at ZT8.5 and food access was restricted at ZT11. Liquid feed (AIN-76, BioServ, Flemington, N.J.) was prepared at 1000 kcal/L in milli-Q water and at ZT12, mice were gavaged with 400 μL (0.4 kcal) of diet, corresponding to approximately 3 h of ad libitum consumption of standard chow. For the pair feeding study, RER was monitored over 12 h in mice maintained on the HFD for 22 weeks (31 weeks of age); pair-fed mice were used after a 48 h wash-out period and provided with the average amount of food they ate over 24 h after sphingolipid-like compound 893 treatment (92.5 mg or 0.4 kcal).
# During measurements of one SD cohort (4 vehicle- and 4 sphingolipid-like compound 893-treated mice), a leak in the reference CO2 system was detected, the O2 and CO2 data was censored until the leak was corrected (70-74 h). Feeding and activity measurements were not compromised and were still analyzed. Occasionally, uneaten food was found on the floor of the cage precluding use of the hopper sensor to accurately monitor food intake. In these instances, food intake data was censored for the prior 24 h period (days 2 and 3 for mouse 8 (SD+sphingolipid-like compound 893) and mouse 8 (SD+vehicle), and day 3 for mouse 8 (HFD+sphingolipid-like compound 893) and mouse 1 (HFD+vehicle)). […] In rare cases, inadvertent pharyngeal administration of gavage material occurred. These mice were not euthanized, but food intake, calorimetry, and activity data from these animals was excluded from the analysis for 1 week after this event (mouse 2 (HFD+sphingolipid-like compound 893) after the second treatment on day 3 and mouse 5 (HFD+sphingolipid-like compound 893) after the first dose on day 1).
# [2] = test system: mouse embryonic fibroblasts; experiment: Basal 2-deoxyglucose uptake in fibroblasts; format: cell-based; conditions: 3 h, 893 5 or 10 μM
# Experimental: Glucose uptake assays were performed using the Glucose-Glo™ uptake Kit according to manufacturer's instructions (cat # J1342, Promega, Madison, Wis.). For basal glucose uptake in MEFs, cells were plated the night before in 96-well black, clear-bottom plates. Cells were treated for 3 h, washed once in PBS, then pulsed with 1 mM 2-DG in glucose-free media containing their respective drug treatments. After 10 min, the reaction was quenched and developed according to manufacturer's protocol. To assay insulin-stimulated glucose uptake, mature adipocytes in 96-well black clear-bottom plates were serum starved for 16 h. Cells were treated in serum-free media supplemented with 0.2% fatty-acid free BSA for 3 h. Cells were washed once in PBS and incubated in glucose-free media with their respective drug treatments, with or without 100 nM bovine insulin, for 15 min. A concentrated 2-DG stock was added directly to wells for 10 min (1 mM final concentration), then the reaction stopped and developed according to manufacturer's protocol.
# [3] = test system: AKT; conditions: cited from earlier work
# [4] = mice on SD or HFD 10-12 weeks, 120 mg/kg p.o. at ZT8.5
smiles,measurement,setting,value
CCCCCCCCc1ccc([C@H]2CCN[C@@H]2CO)cc1.Cl [compound 893],"Food intake and RER, morning dosing","[1]; 120 mg/kg at ZT2, mice on standard diet",still decreased both food intake and RER
same,Activity (XY beam breaks),[1]; 120 mg/kg p.o. at ZT8.5,trend towards reduced activity
same,Energy expenditure (Weir formula),[1]; 120 mg/kg p.o. at ZT8.5,not significantly affected
same,Time after treatment at which RER returned to control values,[1]; 120 mg/kg p.o. at ZT8.5,24 h
same,"Food intake and body weight loss, HFD for 22 weeks","[1]; mice on HFD 22 weeks, 120 mg/kg once at ZT8.5",the suppression of food intake and body weight loss appeared to increase
same,Food intake in metabolic caging,[1]; [4],reduced food intake
same,Respiratory exchange ratio (RER),[1]; [4],reduced the RER in both HFD- and SD-fed mice
same,Constitutive glucose uptake,[2],constitutive glucose uptake in fibroblasts was reduced
same,Effect on AKT activity,[3],does not reduce AKT activity
